Reference: article PMC9320560, “Structure-Based Identification and Biological Characterization of New NAPRT Inhibitors” (Pharmaceuticals, 2022)
Entries after “also recorded” stand apart in the source; their conditions may differ.

Key:
recombinant hNAPRT [1] = target: T1, recombinant hNAPRT (Homo sapiens, UniProt Q6XQN6); experiment: hNAPRT inhibition assay (HPLC of NA and NAMN); format: biochemical; conditions: for IC50: 100 µM nicotinic acid, 200 µM PRPP, 45 min at 37 °C, formation of NAMN
T1 construct: His-tag (C); made in house; host or cells: E. coli
T1 sequence (Q6XQN6 1-538): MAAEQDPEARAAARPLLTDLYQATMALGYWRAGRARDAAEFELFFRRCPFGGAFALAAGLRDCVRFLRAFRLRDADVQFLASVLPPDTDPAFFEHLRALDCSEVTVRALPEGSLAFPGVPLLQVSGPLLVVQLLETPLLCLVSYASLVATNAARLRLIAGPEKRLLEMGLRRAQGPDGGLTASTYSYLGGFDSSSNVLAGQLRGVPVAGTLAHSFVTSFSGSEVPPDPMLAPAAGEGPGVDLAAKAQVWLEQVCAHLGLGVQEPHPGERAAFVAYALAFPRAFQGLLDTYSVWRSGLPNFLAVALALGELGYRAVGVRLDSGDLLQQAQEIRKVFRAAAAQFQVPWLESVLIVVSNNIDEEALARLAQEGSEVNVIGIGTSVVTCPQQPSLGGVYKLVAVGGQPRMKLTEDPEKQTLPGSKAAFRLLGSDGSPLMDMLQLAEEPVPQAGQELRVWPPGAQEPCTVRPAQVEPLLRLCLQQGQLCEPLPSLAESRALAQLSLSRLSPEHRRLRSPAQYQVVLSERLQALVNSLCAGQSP
Protocol: hNAPRT was expressed in E. coli with an N-terminal His-tag and purified as described above. The enzymatic reactions were carried out at 37 °C in standard reaction mixtures containing 50 mM Tris-HCl, pH 7.4, 10 mM KCl, 2 mM MgCl2, 100 µM nicotinic acid, 200 µM PRPP, 0.1 mg/mL purified recombinant hNAPRT, and the test compound at five different concentrations ranging from 20 µM to 1000 µM.
Blank mixtures without compounds but with equal amounts of DMSO were set in parallel and their rates fixed as 100% activity. NAPRT was pre-incubated with the compounds for 5 min and reactions were started by the addition of the enzyme substrates and stopped after 45 min of incubation by heating to 85 °C for 3 min. Following centrifugation of the reaction mix, the supernatant was analyzed by HPLC by injection into a reverse-phase column (XTerra MS C18 Column, 125Å, 5 μm, 4.6 × 150 mm, Waters). The eluted species were monitored at 260 nm and the peaks of nicotinic acid and nicotinic acid mononucleotide were quantified with reference to standard curves. The percentage of nicotinic acid conversion was calculated for each reaction and the IC50 values for the active compounds were determined with GraphPad Prism 8 software (GraphPad Software, S. Diego, CA, USA).

[2] = test system: intracellular NAD+ levels in OVCAR-5 cells; experiment: Intracellular NAD+ quantification (enzyme cycling assay); format: cell-based; conditions: for drop in NAD+ levels / interaction with FK866 in NAD+ reduction: test compound 100 µM + 30 nM FK866, 20 h
Protocol: The assay that was performed on OVCAR-5 cell viability led to a set of potential NAPRT inhibitors, namely IM 29, IM 38, IM 43, IM 49, MMB-128, MMB-131, MMB-268, and MMB-312. In order to confirm that the cited compounds sensitized OVCAR-5 cells to the NAMPT inhibitor FK866 by interfering with NAD biosynthesis, we quantified the intracellular NAD^+ levels in OVCAR-5 cells after 20-h treatments with these compounds with or without FK866.
Figure 3 A subset of test compounds cooperates synergistically with FK866 in decreasing intracellular NAD^+ levels in OVCAR-5 cells. The compounds were administered to cells alone or in combination with FK866 for 20 h. Quantification of NAD^+ was performed via an enzyme cycling assay and normalized to cell lysate protein content. The results are the mean ± SD of two technical replicates with two biological replicates each. *, p < 0.05; **, p < 0.01; ***, p < 0.001 vs. the respective control, i.e., FK866-untreated control for the test compounds that were administered alone to cells, and FK866-treated control for the combinations of test compound and FK866; §, p < 0.05 versus FK866-untreated, control cells.
A total of 1 × 10^5 OVCAR-5 cells/well were plated in 24-well plates in the regular culture medium. 24 h later the cell medium was removed and the cells were cultured either in the regular medium that was supplemented with 0.3 µM nicotinic acid (control wells) or in the treatment medium (regular medium with 0.3 µM nicotinic acid and combinations of 30 nM FK866, 1 mM 2-HNA and 100 µM of test compounds). Each condition was performed in duplicate and the cells remained under treatment for a total of 20 h at 37 °C. Thereafter, the cell medium was removed and the cells were harvested and lysed with 0.6 M perchloric acid (PCA). Samples in PCA were neutralized by diluting the extracts in 100 mM sodium phosphate buffer (pH 8) and the total intracellular NAD^+ content was determined with a sensitive enzyme cycling assay that exploits the use of alcohol dehydrogenase. The obtained NAD^+ values were normalized to cell lysate protein content that was quantified by the Bradford method.

recombinant hNAPRT [3] = target: T1, recombinant hNAPRT; experiment: hNAPRT melting temperature determination (DSF); format: binding; conditions: 100 μM inhibitor, 5 μM hNAPRT
Protocol: With the purpose to provide support to the results that were obtained in the enzymatic activity assay, the ability of the new hNAPRT inhibitors to stabilize the protein through binding was evaluated via the measurement of the hNAPRT melting temperature in the presence or absence of the inhibitors at a 100 μM concentration. The resulting Tm shifts are depicted in Figure 5. […] A plausible explanation for this outcome is that larger compounds are more likely to establish a higher number of interactions and thus result in greater stabilization of a given protein.
Figure 5 NAPRT inhibitors MMB-128 and MMB-131 directly engage recombinant hNAPRT. Differential scanning fluorimetry (DSF) was used to determine the thermal stabilization of hNAPRT protein upon inhibitor binding. Recombinant hNAPRT protein was exposed to 100 μM hNAPRT inhibitors over a defined temperature gradient and the melting temperature Tm was calculated for each compound. The data are shown as means ± standard error of the means (SEM) of two technical replicates with three biological replicates each. * p < 0.05; unpaired t-test.
The melting temperature ™ of hNAPRT was determined through the differential scanning fluorimetry (DSF) technique. Triplicates of 100 μM of each test compound and DMSO were added to a 96-well clear bottom BioRad PCR plate. Subsequently, DSF protein buffer, containing 5 μM of recombinant hNAPRT protein and 5X SPYRO® Orange (S5692, Sigma-Aldrich) in 20 mM HEPES pH 7.5, 100 mM NaCl, 10 mM Mg-acetate, and 1 mM DTT was added. The plate was sealed and exposed to a temperature gradient from 20 to 95 °C in a BioRad CFX96 Real-Time System. The fluorescence for each temperature increment was measured at 465–580 nm with an excitation wavelength of 465 nm. The DSF templates that were provided by Niesen et al. were used for data analysis followed by GraphPad Prism 8 for statistical analysis of the generated data.

OVCAR-5 cells = experiment: Cell viability assay (SRB): sensitization of OVCAR-5 cells to FK866; format: cell-based; conditions: for combination index (CI) with FK866: 0.3 µM nicotinic acid in medium; for cell viability, single-agent treatment: 72 h, 100 nM FK866 alone or 1 mM 2-HNA alone
Source text: The first assay that we performed to test the putative NAPRT inhibitors was based on the principle that NAPRT-expressing OVCAR-5 cells are resistant to FK866 whereas the simultaneous chemical inhibition of NAPRT with 2-HNA renders the cells sensitive to the NAMPT inhibitor due to the cooperation between FK866 and 2-HNA in depleting the intracellular NAD pool. […] Thus, 2-HNA was used throughout the study as a positive control in our cell viability assay and any test compound resembling its activity was considered a potential NAPRT inhibitor. It is worth mentioning that, to reflect the physiological contribution of the Preiss–Handler pathway to NAD biosynthesis, all cell-based assays that are presented in this study were performed under a nicotinic acid concentration of 0.3 µM in the cell culture medium (Figure S1).
We decided to use combination index (CI) as a measure to determine the degree of interaction between FK866 and the test compounds i.e., to identify potential new NAPRT inhibitors. A CI < 1 indicates a synergistic interaction between the test compound and FK866 in decreasing cell viability. A CI = 1 and a CI > 1 are indicative of an additive and of an antagonistic effect, respectively.
A total of 3 × 10^3 OVCAR-5 cells/well were plated in 96-well plates in the regular culture medium. 24 h later the cell medium was removed and the cells were subsequently incubated either in the regular medium that was supplemented with 0.3 µM nicotinic acid (control wells) or in the treatment medium which contained 0.3 µM nicotinic acid and combinations of 100 nM FK866, 1 mM 2-HNA, and 100 µM of test compounds. Each condition was performed in triplicate and the cells remained under treatment for a total of 72 h at 37 °C. Thereafter, the culture plates were fixed with 10% trichloroacetic acid at 4 °C for 20 min, washed with cold water, and dried overnight. The plates were stained with 0.04% sulforhodamine B (SRB) in 1% acetic acid, washed four times with 1% acetic acid to remove the unbound dye, and dried overnight. Lastly, Trizma®-base 10 mM was added to the plates and cell viability was quantified by absorbance measurements on a Tecan Infinite® 200 PRO instrument.
To quantify the extent of the interaction between FK866 and the putative NAPRT inhibitors or 2-HNA, we applied the combination index (CI) equation that is depicted below:(1) CI=mortality % A+mortality % B /mortality % A+B where: ‘A’ refers to the treatment of cells with FK866 100 nM; ‘B’ refers to the treatment of cells with the test compound 100 µM or 2-HNA 1 mM; ‘A + B’ refers to the coadministration of FK866 100 nM and the test compound at 100 µM or 2-HNA 1 mM. A synergistic interaction is evidenced by CI < 1, additive effect produces CI close to 1, whereas CI > 1 corresponds to antagonistic effect.

[4] = Preparation of 50 mM stock solution in DMSO; format: physicochemical
Protocol: As noted in the methodology section, a 50 mM stock solution in DMSO was prepared for each compound.
Compounds were obtained in mg quantity and subsequently dissolved in DMSO to prepare a 50 mM stock solution. The purity of all compounds was > 95%, as declared by vendors or collaborators.

[5] = test compound 100 µM + 100 nM FK866, 72 h

NCc1cc2c(cc1Cl)OCO2 [IM 29]
IC50 (recombinant hNAPRT [1]): 160 µM | potentiation of the effect of FK866 in reducing intracellular NAD levels ([2]; combination with FK866): more than two-fold | drop in NAD+ levels [2]: 42.9–56.4% | Tm shift of hNAPRT (recombinant hNAPRT [3]): remained unchanged | cytotoxicity in combination with FK866 (OVCAR-5 cells; [5]): high cytotoxicity

O=C(O)c1cccnc1O [Compound 2-HNA, 2-hydroxynicotinic acid, reference compound]
drop in intracellular NAD+ concentration ([2]; 1 mM 2-HNA + 30 nM FK866, 20 h): 86% | cytotoxicity of co-treatment with FK866 (OVCAR-5 cells; 1 mM 2-HNA + 100 nM FK866, 72 h): pronounced cell death; also recorded: marked cytotoxicity | combination index (CI) with FK866 (OVCAR-5 cells; 2-HNA 1 mM + 100 nM FK866, 72 h): 0.08 | cell viability, single-agent treatment (OVCAR-5 cells): withstood

COc1cc(OC)cc(-c2cn(CC3NCC(O)C3O)nn2)c1 (stereo not drawn) [MMB-312]
interaction with FK866 in NAD+ reduction [2]: additive effects | cytotoxicity in combination with FK866 (OVCAR-5 cells; [5]): less pronounced cytotoxicity | combination index (CI) with FK866 (OVCAR-5 cells; test compound 100 µM + 100 nM FK866, 72 h, CI < 1 synergistic): 0.12

CC(C)(C)C(=O)OCCCn1cc(CCCN2CC(O)C(O)C2Cn2cc(-c3ccccc3)nn2)nn1 (stereo not drawn) [MMB-131]
IC50 (recombinant hNAPRT [1]): 242 µM | drop in NAD+ levels [2]: 42.9–56.4% | Tm shift of hNAPRT (recombinant hNAPRT [3]): approximately 0.5 °C | cytotoxicity in combination with FK866 (OVCAR-5 cells; [5]): less pronounced cytotoxicity

COc1ccc2cc(C=O)c(O)nc2c1 [IM 43]
interaction with FK866 in NAD+ reduction [2]: additive effects | cytotoxicity in combination with FK866 (OVCAR-5 cells; [5]): high cytotoxicity

Cc1cc(C(=O)O)nc(N)n1 [IM 28]
solubility in DMSO [4]: could not be solubilized

CC(Oc1ccccc1Cl)C(=O)Nc1cccc(C(=O)O)c1 (stereo not drawn) [IM 38]
IC50 (recombinant hNAPRT [1]): 265 µM | drop in NAD+ levels [2]: 42.9–56.4% | Tm shift of hNAPRT (recombinant hNAPRT [3]): remained unchanged | cytotoxicity in combination with FK866 (OVCAR-5 cells; [5]): less pronounced cytotoxicity

O=C(/C=C/c1cccnc1)NCCCCC1CCN(C(=O)c2ccccc2)CC1 [FK866, reference compound]
decrease of intracellular NAD+ levels ([2]; 30 nM FK866 alone, 20 h): 24% | cell viability, single-agent treatment (OVCAR-5 cells): withstood

CC(C)(C)C(=O)OCCCn1cc(CCCN2CC(O)C(O)C2CNC(=O)c2ccccc2)nn1 (stereo not drawn) [MMB-128]
drop in NAD+ levels [2]: 42.9–56.4% | Tm shift of hNAPRT (recombinant hNAPRT [3]): approximately 0.5 °C | cytotoxicity in combination with FK866 (OVCAR-5 cells; [5]): high cytotoxicity

O=C(Cn1c(=O)sc2ccccc21)Nc1cccc(C(=O)O)c1 [IM 49]
IC50 (recombinant hNAPRT [1]): 232 µM | interaction with FK866 in NAD+ reduction [2]: lower degree of synergism | effect on intracellular NAD+ levels, compound alone ([2]; test compound 100 µM alone, 20 h): strongly reduced | Tm shift of hNAPRT (recombinant hNAPRT [3]): remained unchanged | cytotoxicity in combination with FK866 (OVCAR-5 cells; [5]): less pronounced cytotoxicity

OC1CNC(Cn2cc(-c3cc(C(F)(F)F)cc(C(F)(F)F)c3)nn2)C1O (stereo not drawn) [MMB-268]
inhibition of hNAPRT (recombinant hNAPRT [1]; data not shown): negligible inhibition | drop in NAD+ levels [2]: 42.9–56.4% | cytotoxicity in combination with FK866 (OVCAR-5 cells; [5]): high cytotoxicity
